Data: patent US20090111836A1, “Angular Pyranocoumarins, Process for Preparation and Uses Thereof” (CITY UNIVERSITY OF HONG KONG, priority 2007, published 2009)
Values belong to the molecule of their own block, whether it stands above or below them.

How the values were obtained:
HepG2-DR cells [1] = assay: SRB growth inhibition assay, HepG2-DR; format: cell-based, human; settings: IC50 HepG2-DR / IC50 HepG2
Protocol: K562, K562-DR, HepG2, HepG2-DR were cultured in RPMI-1640 medium containing 10% fetal bovine serum and 100 U/mL, antibiotics. […] Drug test: […] New calorimetric cytotoxicity assay for anticancer-drug screening. […] Mosmann T. Rapid colorimetric assay for cellular growth and survival: application to proliferation and cytotoxicity assays. […] Gerlier D, Thomasset N. […] Each growth inhibition experiment must be repeated three times and results are expressed as mean±standard deviation (SD). Solvents and media were included as blank control. In SRB assay, cells are inoculated at 5000 cells/well in a 96-well microplate and incubated overnight to let cells adhere. Drug treatment lasts for 72 hours and cells are fixed for 1 hour at 4° C. with 50 μl ice-cold 15% trichloroacetic acid and washed with triple-distilled water 5 times. […] The protein-bound dye is dissolved in 100 μl per well of 10 mM Tris base (pH 10.5). The color intensity of SRB, which positively correlate to cell number in preliminary experiments, is estimated at OD 515 nm.

K562-DR cells = assay: MTT growth inhibition assay, K562-DR; format: cell-based, human; settings: IC50 K562-DR / IC50 K562
Protocol: K562, K562-DR, HepG2, HepG2-DR were cultured in RPMI-1640 medium containing 10% fetal bovine serum and 100 U/mL, antibiotics. […] Drug test: […] New calorimetric cytotoxicity assay for anticancer-drug screening. […] Mosmann T. Rapid colorimetric assay for cellular growth and survival: application to proliferation and cytotoxicity assays. […] Gerlier D, Thomasset N. […] Each growth inhibition experiment must be repeated three times and results are expressed as mean±standard deviation (SD). Solvents and media were included as blank control. In MTT assay, cells are inoculated at 5000 cells/well and are incubated overnight. Drug treatment lasts for 68 h. MTT (5 mg/ml in PBS) is added to each well (1:10 dilution). […] Viable cell number is estimated by correlating to OD at 570 nm.

HepG2-DR cells [2] = assay: Cell cycle distribution by flow cytometry (doxorubicin-induced G2/M arrest), HepG2-DR; format: cell-based, human; settings: HepG2-DR; for Cell cycle distribution, G0/G1 / Cell cycle distribution, G2/M / Cell cycle distribution, S / Cell cycle distribution, SubG1: 48 h; for Concentration of test compound that reduced the effective doxorubicin concentration (G2/M arrest) from 50 to 1 μM: combination with doxorubicin
Protocol: 1.2 Instruments: FACSCAN flow cytometry (Becton Dickinson Immunocytometry Systems, San Jose, Calif.), the obtained data were analyzed using the software of Macintosh CellQuest.
1.3 Cell lines: HepG2, HepG2-DR.
1.4 Drug treatment: HepG2 and HepG2-DR cells were respectively treated with each of cis-DMDCK, cis-DMDBK, trans-DMDCK, trans-DMDBK and doxorubicin for 48 hours, or treated respectively with the combination of doxorubicin and one of cis-DMDCK, cis-DMDBK, trans-DMDCK, trans-DMDBK for 48 hours.
1.5 Treatment and detection of sample cells: after washed twice by ice-cold PBS, the cells were fixed with 70% ethanol at −20° C. overnight. The fixed cells were washed by PBS once and resuspended in 1 mL of PBS containing 100 μg/mL RNAase A and incubated at 37° C. for 30 minutes. Finally, propidium iodide solution (final concentration is 40 μg/mL,) was added to bind with DNA and incubated at room temperature for 5-10 minutes. Cells were analyzed by FACSCAN flow cytometry immediately.

P-gp [3] = target: T1, P-gp (Homo sapiens, UniProt P08183); assay: Rhodamine-123 efflux assay, K562-DR; format: cell-based; set-up: K562-DR cell expressed P-gp at high level when compared with parental drug sensitive cells thereof; endogenous in cells; settings: 10 μM, 1 hour efflux
Protocol: (§1) (Fs: cellular fluorescence intensity of Rb-123 in the presence of testing drugs; Fo: cellular fluorescence intensity of Rh-123 in the absence of any P-gp modulator).
(§2) 1.4 Test for Rh-123 transport: HepG2-DR cells or K562-DR cells (1×10^6 cells in 1 mL complete growth medium) were incubated with 5 μg/mL, Rh-123 at 37° C. for 1 hour to allow Rh-123 uptake. […] Cellular fluorescence of Rh-123 was determined by flow cytometry to analyze the inhibitive effect of test compounds on drug expulsion from cells.

P-gp [4] = target: T1, P-gp; assay: Rhodamine-123 efflux assay, HepG2-DR; format: cell-based; set-up: KB V1, HepG2-DR and K562-DR cell expressed P-gp at high level when compared with parental drug sensitive cells thereof; endogenous in cells; host or cells: HepG2-DR (doxorubicin-maintained multidrug resistant subline of HepG2); settings: 10 μM, 1 hour efflux
Protocol: as §1, §2

[5] = 1 μM doxorubicin + 0.5 μM test compound
[6] = 1 μM doxorubicin + 1 μM test compound
[7] = 1 μM doxorubicin + 2 μM test compound
[8] = 1 μM doxorubicin + 4 μM test compound

T1 sequence (P08183 whole entry): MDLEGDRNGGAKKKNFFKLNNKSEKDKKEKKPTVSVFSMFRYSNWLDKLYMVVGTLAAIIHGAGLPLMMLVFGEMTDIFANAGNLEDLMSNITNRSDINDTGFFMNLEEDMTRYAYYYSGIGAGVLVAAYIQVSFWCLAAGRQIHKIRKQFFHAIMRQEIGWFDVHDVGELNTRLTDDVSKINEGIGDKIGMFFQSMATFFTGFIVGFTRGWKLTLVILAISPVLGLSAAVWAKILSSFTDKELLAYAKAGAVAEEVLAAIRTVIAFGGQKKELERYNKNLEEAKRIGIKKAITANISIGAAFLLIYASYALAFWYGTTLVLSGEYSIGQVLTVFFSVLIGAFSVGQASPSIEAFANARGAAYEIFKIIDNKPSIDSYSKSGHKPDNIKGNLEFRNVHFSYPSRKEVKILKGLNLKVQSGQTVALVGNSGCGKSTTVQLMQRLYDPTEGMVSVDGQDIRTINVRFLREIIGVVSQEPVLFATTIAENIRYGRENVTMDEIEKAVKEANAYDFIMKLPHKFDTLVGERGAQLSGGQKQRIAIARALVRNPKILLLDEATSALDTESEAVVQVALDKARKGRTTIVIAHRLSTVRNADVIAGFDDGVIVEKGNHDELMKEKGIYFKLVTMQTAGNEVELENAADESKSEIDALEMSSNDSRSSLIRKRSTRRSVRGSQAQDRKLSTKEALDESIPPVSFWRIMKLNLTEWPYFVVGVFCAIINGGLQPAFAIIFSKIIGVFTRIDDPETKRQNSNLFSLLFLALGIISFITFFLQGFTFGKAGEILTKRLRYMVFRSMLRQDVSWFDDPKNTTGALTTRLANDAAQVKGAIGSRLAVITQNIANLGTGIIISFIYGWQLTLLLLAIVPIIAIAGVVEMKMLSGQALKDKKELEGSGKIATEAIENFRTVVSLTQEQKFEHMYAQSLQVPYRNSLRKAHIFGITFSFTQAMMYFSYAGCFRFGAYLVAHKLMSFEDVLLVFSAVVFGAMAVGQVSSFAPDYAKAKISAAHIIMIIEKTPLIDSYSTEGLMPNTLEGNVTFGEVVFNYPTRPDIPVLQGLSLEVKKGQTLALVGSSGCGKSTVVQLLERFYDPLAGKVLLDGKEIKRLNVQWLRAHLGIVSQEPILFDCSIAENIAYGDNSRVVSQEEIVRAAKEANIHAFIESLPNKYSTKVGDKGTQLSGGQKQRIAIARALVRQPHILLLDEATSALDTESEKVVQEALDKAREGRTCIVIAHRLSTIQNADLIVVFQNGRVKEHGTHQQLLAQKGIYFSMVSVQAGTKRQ

Increase in cellular Rh-123 fluorescence compared with untreated cells (P-gp [3]): 140%
Increase in cellular Rh-123 fluorescence compared with untreated cells (P-gp [4]): 400%
Compound: COc1ccc(C(=O)O[C@@H]2c3c(ccc4ccc(=O)oc34)OC(C)(C)[C@@H]2OC(=O)c2ccc(OC)c(OC)c2)cc1OC (racemic) [cis-DMDBK, (±)-3′-O,4′-O-bis(3,4-dimethoxybenzoyl)-cis-khellactone]
Resistant ratio (HepG2-DR cells [1]): 1.19
Resistant ratio (K562-DR cells): 0.91
Cell cycle distribution, G0/G1 (HepG2-DR cells [2]; [5]): 35.82 ± 2.26%
Cell cycle distribution, G2/M (HepG2-DR cells [2]; [5]): 52.79 ± 5.64%
Cell cycle distribution, S (HepG2-DR cells [2]; [5]): 6.44 ± 0.77%
Cell cycle distribution, SubG1 (HepG2-DR cells [2]; [5]): 2.92 ± 1.09%
Cell cycle distribution, G0/G1 (HepG2-DR cells [2]; [6]): 13.52 ± 1.36%
Cell cycle distribution, G2/M (HepG2-DR cells [2]; [6]): 73.03 ± 1.89%
Cell cycle distribution, S (HepG2-DR cells [2]; [6]): 5.85 ± 3.09%
Cell cycle distribution, SubG1 (HepG2-DR cells [2]; [6]): 4.08 ± 0.81%
Cell cycle distribution, G0/G1 (HepG2-DR cells [2]; [7]): 3.74 ± 0.76%
Cell cycle distribution, G2/M (HepG2-DR cells [2]; [7]): 79.01 ± 6.01%
Cell cycle distribution, S (HepG2-DR cells [2]; [7]): 6.86 ± 2.57%
Cell cycle distribution, SubG1 (HepG2-DR cells [2]; [7]): 7.13 ± 6.57%
Effect on cell cycle by itself (HepG2-DR cells [2]; 4 μM alone): no effect
Cell cycle distribution, G0/G1 (HepG2-DR cells [2]; 4 μM alone): 52.36 ± 0.98%
Cell cycle distribution, G2/M (HepG2-DR cells [2]; 4 μM alone): 34.36 ± 0.42%
Cell cycle distribution, S (HepG2-DR cells [2]; 4 μM alone): 7.66 ± 3.22%
Cell cycle distribution, SubG1 (HepG2-DR cells [2]; 4 μM alone): 2.27 ± 0.49%
Concentration of test compound that reduced the effective doxorubicin concentration (G2/M arrest) from 50 to 1 μM (HepG2-DR cells [2]): 2 µM

Compound: COc1ccc(/C=C/C(=O)O[C@@H]2[C@@H](OC(=O)/C=C/c3ccc(OC)c(OC)c3)c3c(ccc4ccc(=O)oc34)OC2(C)C)cc1OC (racemic) [trans-DMDCK, (±)-3′-O,4′-O-bis(3,4-dimethoxycinnamoyl)-trans-khellactone]
Resistant ratio (HepG2-DR cells [1]): 1.36
Resistant ratio (K562-DR cells): 1.42
Cell cycle distribution, G0/G1 (HepG2-DR cells [2]; [6]): 34.29 ± 0.21%
Cell cycle distribution, G2/M (HepG2-DR cells [2]; [6]): 48.46 ± 2.52%
Cell cycle distribution, S (HepG2-DR cells [2]; [6]): 8.80 ± 3.64%
Cell cycle distribution, SubG1 (HepG2-DR cells [2]; [6]): 3.94 ± 0.77%
Cell cycle distribution, G0/G1 (HepG2-DR cells [2]; [7]): 21.21 ± 1.48%
Cell cycle distribution, G2/M (HepG2-DR cells [2]; [7]): 64.06 ± 3.56%
Cell cycle distribution, S (HepG2-DR cells [2]; [7]): 5.79 ± 4.05%
Cell cycle distribution, SubG1 (HepG2-DR cells [2]; [7]): 6.55 ± 0.12%
Cell cycle distribution, G0/G1 (HepG2-DR cells [2]; [8]): 6.03 ± 0.91%
Cell cycle distribution, G2/M (HepG2-DR cells [2]; [8]): 79.52 ± 0.66%
Cell cycle distribution, S (HepG2-DR cells [2]; [8]): 5.70 ± 4.20%
Cell cycle distribution, SubG1 (HepG2-DR cells [2]; [8]): 4.29 ± 1.99%
Effect on cell cycle by itself (HepG2-DR cells [2]; 4 μM alone): no effect
Cell cycle distribution, G0/G1 (HepG2-DR cells [2]; 4 μM alone): 47.46 ± 0.55%
Cell cycle distribution, G2/M (HepG2-DR cells [2]; 4 μM alone): 33.42 ± 1.98%
Cell cycle distribution, S (HepG2-DR cells [2]; 4 μM alone): 7.97 ± 1.05%
Cell cycle distribution, SubG1 (HepG2-DR cells [2]; 4 μM alone): 2.07 ± 0.06%
Concentration of test compound that reduced the effective doxorubicin concentration (G2/M arrest) from 50 to 1 μM (HepG2-DR cells [2]): 4 µM

Increase in cellular Rh-123 fluorescence compared with untreated cells (P-gp [3]): 200%
Increase in cellular Rh-123 fluorescence compared with untreated cells (P-gp [4]): 480%
Compound: COc1ccc(/C=C/C(=O)O[C@@H]2c3c(ccc4ccc(=O)oc34)OC(C)(C)[C@@H]2OC(=O)/C=C/c2ccc(OC)c(OC)c2)cc1OC (racemic) [cis-DMDCK, (±)-3′-O,4′-O-bis(3,4-dimethoxycinnamoyl)-cis-khellactone]
Resistant ratio (HepG2-DR cells [1]): 1.29
Resistant ratio (K562-DR cells): 1.29
Cell cycle distribution, G0/G1 (HepG2-DR cells [2]; [5]): 8.46 ± 1.63%
Cell cycle distribution, G2/M (HepG2-DR cells [2]; [5]): 79.79 ± 4.56%
Cell cycle distribution, S (HepG2-DR cells [2]; [5]): 6.52 ± 1.76%
Cell cycle distribution, SubG1 (HepG2-DR cells [2]; [5]): 4.35 ± 0.59%
Cell cycle distribution, G0/G1 (HepG2-DR cells [2]; [6]): 4.39 ± 1.50%
Cell cycle distribution, G2/M (HepG2-DR cells [2]; [6]): 81.42 ± 6.02%
Cell cycle distribution, S (HepG2-DR cells [2]; [6]): 5.36 ± 3.13%
Cell cycle distribution, SubG1 (HepG2-DR cells [2]; [6]): 5.59 ± 4.35%
Cell cycle distribution, G0/G1 (HepG2-DR cells [2]; [7]): 4.51 ± 0.45%
Cell cycle distribution, G2/M (HepG2-DR cells [2]; [7]): 77.12 ± 3.36%
Cell cycle distribution, S (HepG2-DR cells [2]; [7]): 8.87 ± 4.04%
Cell cycle distribution, SubG1 (HepG2-DR cells [2]; [7]): 6.40 ± 5.54%
Effect on cell cycle by itself (HepG2-DR cells [2]; 4 μM alone): no effect
Cell cycle distribution, G0/G1 (HepG2-DR cells [2]; 4 μM alone): 52.10 ± 0.61%
Cell cycle distribution, G2/M (HepG2-DR cells [2]; 4 μM alone): 33.20 ± 2.05%
Cell cycle distribution, S (HepG2-DR cells [2]; 4 μM alone): 8.38 ± 4.24%
Cell cycle distribution, SubG1 (HepG2-DR cells [2]; 4 μM alone): 2.25 ± 0.51%
Concentration of test compound that reduced the effective doxorubicin concentration (G2/M arrest) from 50 to 1 μM (HepG2-DR cells [2]): 1 µM

Compound: COc1ccc(C(=O)O[C@@H]2[C@@H](OC(=O)c3ccc(OC)c(OC)c3)c3c(ccc4ccc(=O)oc34)OC2(C)C)cc1OC (racemic) [trans-DMDBK, (±)-3′-O,4′-O-bis(3,4-dimethoxybenzoyl)-trans-khellactone]
Resistant ratio (HepG2-DR cells [1]): 1.31
Resistant ratio (K562-DR cells): 1.50
Cell cycle distribution, G0/G1 (HepG2-DR cells [2]; [6]): 34.60 ± 2.58%
Cell cycle distribution, G2/M (HepG2-DR cells [2]; [6]): 49.53 ± 0.69%
Cell cycle distribution, S (HepG2-DR cells [2]; [6]): 7.61 ± 3.69%
Cell cycle distribution, SubG1 (HepG2-DR cells [2]; [6]): 3.31 ± 0.89%
Cell cycle distribution, G0/G1 (HepG2-DR cells [2]; [7]): 17.56 ± 2.20%
Cell cycle distribution, G2/M (HepG2-DR cells [2]; [7]): 67.89 ± 1.19%
Cell cycle distribution, S (HepG2-DR cells [2]; [7]): 7.03 ± 2.34%
Cell cycle distribution, SubG1 (HepG2-DR cells [2]; [7]): 5.30 ± 2.52%
Cell cycle distribution, G0/G1 (HepG2-DR cells [2]; [8]): 5.37 ± 1.06%
Cell cycle distribution, G2/M (HepG2-DR cells [2]; [8]): 81.56 ± 2.62%
Cell cycle distribution, S (HepG2-DR cells [2]; [8]): 4.71 ± 3.62%
Cell cycle distribution, SubG1 (HepG2-DR cells [2]; [8]): 5.11 ± 2.84%
Effect on cell cycle by itself (HepG2-DR cells [2]; 4 μM alone): no effect
Cell cycle distribution, G0/G1 (HepG2-DR cells [2]; 4 μM alone): 49.57 ± 0.15%
Cell cycle distribution, G2/M (HepG2-DR cells [2]; 4 μM alone): 34.41 ± 3.70%
Cell cycle distribution, S (HepG2-DR cells [2]; 4 μM alone): 6.17 ± 1.55%
Cell cycle distribution, SubG1 (HepG2-DR cells [2]; 4 μM alone): 1.33 ± 0.24%
Concentration of test compound that reduced the effective doxorubicin concentration (G2/M arrest) from 50 to 1 μM (HepG2-DR cells [2]): 4 µM
